Measurements taken from patent publication EP4089103A1, “CLPCP PROTEASE-BINDING CYCLIC HEPTAPEPTIDES” (priority 2021, dated 2022).

Tests used:
[1] = tested on: BRDTBD1 expressed in M. smegmatis cells; assay: In vivo degradation assay in live mycobacteria, capillary western (Wes); type: cell-based, M. smegmatis mc^2-155; details: 100 µM, 10 µM or 1 µM BacPROTAC-3, 100 µM sCym-1 or 100 µM JQ1; 2 hours incubation; Figure 3
Description: After validating the activity of the compound Cym_bacPROTAC_3 in vitro, the compound was investigated in an in vivo degradation assay in a cellular environment. For the in vivo degradation assay Msm cells stably expressing BRDTBD1 were used. The culture was treated with the compound Cym_bacPROTAC_3 or alternatively, the individual building blocks sCym-1 and JQ1. After two hours incubation, BRDTBD1 levels were quantified using capillary western as detailed below.
A stationary culture of M. smegmatis mc^2-155 carrying a plasmid BRDTBD1 expression was diluted 1:200 in 50 mL 7H9 medium supplemented with 50 µg/mL hygromycin. The culture was grown at 37 °C with vigorous shaking to an OD600 of ∼1. Expression of BRDTBD1 was then induced by addition of 200 µL 50% acetamide in H2O. […]
The amounts of BRDTBD1 in the lysates were quantified using Wes (ProteinSimple), a capillary electrophoresis-based western blot technology. Bacterial lysates were diluted 2-fold and analysed using the 12-230 kDa Wes Separation Module (Protein simple, SM-W004) following the manufacturer's instructions. […] BRDTBD1 was detected using the Anti-Rabbit Detection Module for Wes (ProteinSimple, DM-001), which includes a peroxidase-conjugated secondary antibody and a chemiluminescent substrate. Results were analysed using the Compass for SW software (ProteinSimple). […]

[2] = tested on: mycobacterial proteome (2912 proteins) incl. BRDTBD1; assay: Selectivity of protein degradation, TMT mass spectrometric analysis of Msm lysates; type: cell-based, M. smegmatis; details: TMT MS, triplicate analysis, Figure 4
Description: To address this point, a tandem mass tag (TMT) mass spectrometric (MS) analysis of Msm lysates was performed.
Thus, the TMT MS analysis provides compelling evidence that the compound Cym_bacPROTAC_3 is capable of inducing degradation of the BRDTBD1 substrate in a highly specific and efficient manner.

## Cc1sc2c(c1C)C(c1ccc(Cl)cc1)=N[C@@H](CC(=O)OC(C)(C)C)c1nnc(C)n1-2 [JQ1]
[1]
  BRDTBD1 levels after treatment: did not affect BRDTBD1 levels
[2]
  change in protein abundance versus vehicle (DMSO): did not affect BRDTBD1 levels and did also not cause global effects
